Experimental findings from US9586901B2, “Lactams” (UNILEVER PLC, priority 2006, dated 2017) are described below.

Data set [1] relates to Staphylococcus epidermidis. Put plainly: S. epidermidis growth inhibition (OD600 growth curves). Format: cell-based. Conditions: concentration of compound that significantly alters growth rate or final growth yield. Here is the method:
The growth inhibition of Staphylococcus epidermidis by the compounds of the present invention was determined by growing S. epidermidis in 96 well microtitre plates in Trypticase Soy Broth plus 0.5% glucose in a Wallac Victor2 microplate reader. Each compound was added to the wells at different concentrations and a no-compound control and a set of blank wells were also used. The OD600 was measured hourly.

For the next data set, the system named is S. epidermidis biofilm. Put plainly: Inhibition of biofilm formation in petri dishes, S. epidermidis. Format: cell-based. To be noted: 0.32 ug/ml; percent reduction of control. How it is done: (§1) Biofilm formation in petri dishes was measured using the following protocol as a compromise between flow cells and microtitire plate based assays. The method increases the number of replicates (relative to flow cells) that can be tested while still generating a biofilm that has typical structures, such as microcolonies, which are important as differentiated structures within the biofilm. The method consists of placing a surface, such as a glass slide (for unattached compounds) or a modified plastic coupon (for covalently attached compounds) on the bottom of a sterile petri dish and adding growth medium. The bacteria are inoculated into the dish and allowed to incubate at the appropriate temperature at 50 rpm. The medium is replaced at 24 h and allowed to incubate a further 24 h, after which time, the slides are removed and rinsed to remove loosely attached cells. For monitoring biofilm formation on glass slides, the cells are either stained with a suitable fluorescent stain and are visualised using the confocal microscope and the biofilm (as % surface coverage) is quantified, or the biofilm is stained with crystal violet, washed thoroughly to remove excess stain, and subsequently destained and the absorbance at […] is measured to determine the amount of biofilm, as a function of crystal violet staining.

The next data set has as its system E. coli biofilm. Nature of the data set: Inhibition of biofilm formation in petri dishes, E. coli. The format is cell-based. To be noted: percent reduction of control. Here is the method: as §1
In a further data set the test system is LasR. Nature of the data set: LasR assay (unstable gfp fused to the elastase promoter). Format: cell-based. To be noted: Pseudomonas aeruginosa, read-out: LasR (conc). Here is the method: Compounds of the present invention were also assayed using a LasR assay. The LasR assay provides a measurement of quorum sensing inhibition activity. The higher the percentage inhibition. […] In the LasR assay, an unstable gfp has been fused to the elastase promoter, so that the amount of Gfp is regulated by the QS system. The plasmid is put into Pseudomonas aeruginosa which makes its own AHL signals. The assay is performed by adding the compounds to be tested to the system at the beginning of the experiment, at different concentrations. Gfp expression is measured at different times during growth, ending at the 24 h time point. The percentage fluorescence was determined at the time point when the fluorescence reached its maximum in the control, usually around 11-12 h after inoculation.

A further data set has as its system P. aeruginosa biofilm. Nature of the data set: Inhibition of biofilm formation in petri dishes, P. aeruginosa. The format is cell-based. To be noted: percent reduction of control. Here is the method:
as §1

In a further data set the test system is V. fischeri luxRI system. Nature of the data set: N-acylated homoserine lactone (AHL) quorum sensing assay, GFP reporter strain. The format is cell-based, E. coli. To be noted: for ID40 at 3 nM OHHL: Table 4, number in parentheses, amount of compound lowering relative activity to 40%. How it is done: Compounds of the present invention were compared to compounds of the prior art in order using an AHL-quorum sensing assay which utilises a reporter strain that expresses Green Fluorescent Protein (GFP) in the presence of AHL signals. The assay is performed by measuring GFP output in the presence of the compound to be measured and comparing the output to a control. By using multiple samples at varying concentrations of compound and AHL, an inhibition index of compound activity can be generated. The inhibition index used in the present example is the relative amount of compound required to reduce GFP expression to 40% of the control. The inhibition index is termed AIC40. Lower values of AIC40 represent better inhibitors of the AHL quorum sensing system.
The reporter strain of bacterium used in this assay is E. coli into which the V. fischeri luxRI system has been engineered. A gfp gene is fused to the QS controlled luxI promoter as is described in (Andersen et al., 2001, and Andersen et al, 1998).
Measurement of AIC40 (ID40 at 3 nM OHHL)
Determination of the activity of compounds using the E. coli based luxRI construct was performed as follows.
In a 15 mL plastic tube, mix 3 mL of o.n. culture of the lux reporter strain with 12 mL fresh medium, incubate at 37° C. Label six tubes, 10, 20, two 50 and two 100. To each of the tubes, add OHHL (3-oxohexanoyl homoserine lactone) to a final concentration of 10, 20, 50, or 100 nM respectively in the AB medium (add enough medium to distribute across the appropriate number of wells). To the first row of the microplate (row A), add 200 ul of the OHHL/AB mixture. To the remaining rows (B-H) add 100 ul of the OHHL/AB mixture. To the first row (A) add compounds to be tested to the 200 ul mixture of OHHL/AB. Make a dilution series in the first 7 rows by transferring 100 μL from wells in row 1 to wells in row 2 and so on. Discard the remaining 100 μL from row 7. Add 100 μL diluted lux monitor to each well. Incubate the plate 2 hours at 37° C. and measure green fluorescence using the “Victor” plate reader.
Calculate ID40 for each column. To do this, calculate the relative activity in each well. […] Make a plot for each concentration of OHHL vs. the range of compound concentrations used. Calculate the amount of compound needed to lower the relative activity to 40%, this is termed inhibiting dose 40%, ID40. For each compound an inhibition index, AIC40, is found as follows: plot ID40 against its respective AHL concentration; AIC40 is the slope of the best straight line through the plotted points and origin.
The methodology for this assay is set out in 2(a) above.

Data set [2] has as its system Pseudomonas aeruginosa PAO1 (wt). Put plainly: Pulmonary model of infection: mice challenged with bacteria/seaweed alginate through the trachea. The format is in vivo. How it is done:
The first group was treated with 5-methylene-4-phenyl-dihydro-pyrrol-2-one (C219) as 12 μg/g body weight, given as injections twice a day for three days and the second group were treated with vehicle. (p=0.0008).
This model is reminiscent of the situation in CF patients or patients with a dysfunctional muccociliary escalator.
The treatment dosage of 5-methylene-4-phenyl-dihydro-pyrrol-2-one (C219) was 12 μg/g body weight, given as injections twice a day.
Mice were challenged with Pseudomonas aeruginosa PAO1 (wt) 5.2×10^6 CFU/lung (1.3×10^8 CFU/ml). Each group holds 10 mice, the treatments with C219 and Vehicle lasted for three days. The mortality was 10% in C219 and 30% in Vehicle groups. At day 5, the surviving mice were sacrificed.

Another data set deals with Murine L929 cells. Put plainly: Cytotoxicity study, L929 cell number after 48 hour culture. The format is cell-based. To be noted: for Mean (cell number): L929, 48 hour; for % Inhibition: cell number vs non-challenged cultures. How it is done:
Murine L929 cells are established at low density and, during the testing period, grow to confluency in plastic petri dishes. 24 hours after the dishes are inoculated, the medium on the test dishes is aspirated and replaced with a medium containing the compound to be tested. The cell monolayer is then cultured for a further 48 hour period. At the end of the test period, cells are harvested from the dishes and their numbers assessed and compared with unperturbed cultures. Differences in cell numbers are expressed as a percentage inhibition in comparison to non-challenged cultures.

Where [3] appears, read: Table 4 comparative results, first number of the cell, lower = better.
The mark [4] stands for this setting: inhibition index: slope of ID40 against AHL concentration, lower = better inhibitor, NE = no effect.

As a reminder, the minimal effective concentration is the lowest level tested that produced the effect sought. For the compound `C=C1NC(=O)C=C1c1ccc(Br)cc1` [drawing 25], the minimal effective concentration in data set [1] amounted to 1 µg/mL. In addition, in the data set on S. epidermidis biofilm, the S. epidermidis biofilm is recorded as 41% (0.32 ug/ml). In addition, the E. coli biofilm in the data set with E. coli biofilm (1.5 ug/ml) is reported as 93% (1.5 ug/ml). For the same compound, the inhibition at 50 µg/mL with LasR stood at 45%. Besides, in the data set on P. aeruginosa biofilm (1 ug/ml), the P. aeruginosa biofilm was 32% (1 ug/ml). Besides, the “ID40 at 3 nM OHHL” value in the data set on V. fischeri luxRI system was found to be 21 nM. In addition, the AIC40 in the data set with V. fischeri luxRI system (setting [3]) and in the data set on V. fischeri luxRI system (setting [4]) was 0.49 each time.

One may read the mortality as the percentage killed. Broadly, the % Inhibition is the relative decrease from the control value, in per cent. As for `C=C1NC(=O)C=C1c1ccccc1` [Compound 219, 5-methylene-4-phenyl-dihydro-pyrrol-2-one], the mortality in data set [2] (12 μg/g body weight, injections twice a day for three days, 10 mice per group, Vehicle 30%) was determined as 10%. For the same compound, in data set [2] (LIMP = fraction of total lung area showing inflammation, 12 μg/g twice a day for three days, vs vehicle), the “severity (LIMP) of P aeruginosa lung infection” value is on record as “significantly reduced the severity (LIMP)”. For the same compound, the lung bacterial load result in data set [2] (day 5, 12 μg/g twice a day for three days, vs Vehicle, p=0.0008 (FIG. 1)) is on record as “significantly reduced the lung bacterial load”. Also, the “Mean (cell number)” value with Murine L929 cells (10 μg/ml) is on record as 5.41E+05; in the data set with Murine L929 cells (20 μg/ml), 4.95E+05; in the data set with Murine L929 cells (40 μg/ml, E+05 = ×10^5), 4.74E+05. Further, the “% Inhibition” value with Murine L929 cells (10 μg/ml) is reported as −10.3%; in the data set with Murine L929 cells (20 μg/ml), −1.0%; in the data set on Murine L929 cells (40 μg/ml, 30% = cytotoxic potential), 3.4%. The “cytotoxicity (in words)” value in the data set on Murine L929 cells (compared with compounds 226 and 223) is “surprisingly little or no cytotoxicity”. The AIC40 result in the data set with V. fischeri luxRI system (setting [3]) is “significantly better AIC40 values than compounds 198 and 205”.

In turn, `C=C1NC(=O)C=C1c1ccccc1` [drawing 20] had a minimal effective concentration in data set [1] of 5 µg/mL. Besides, in the data set on E. coli biofilm (5 ug/ml), the E. coli biofilm is recorded as 95% (5 ug/ml). Further, the inhibition at 50 µg/mL in the data set on LasR stood at 80%. Moreover, the P. aeruginosa biofilm in the data set with P. aeruginosa biofilm (10 ug/ml) is 88% (10 ug/ml). In the data set with V. fischeri luxRI system (unit not given), the “ID40 at 3 nM OHHL” value turned out to be 16.2. In addition, the AIC40 in the data set on V. fischeri luxRI system (setting [3]) and with V. fischeri luxRI system (setting [4]) was 1.1 each time.
